Test results from patent US8318710B2, “Skin treatments” (priority 2003, dated 2012).
Where two headings read alike, the source gives them in different places.

How the values were obtained:
[1] = test system: CRABPII protein in primary dermal fibroblasts; test: Fibroblast expression of CRABPII (Western blot); assay type: cell-based; details: 24 hours; for Band Intensity (arbitrary units): CRABPII band; for Relative band intensity: relative to vehicle
Procedure: Cells were then plated out in 12 well plates at 38,000 cells per well, and incubated for 24 hours. […] Cells were treated with vehicle (ethanol) or 22R hydroxycholesterol and/or retinoic acid in 1 ml fresh medium (DMEM plus 10% FCS). Treatments were prepared as fresh 1000× stocks and diluted into medium immediately before addition to the cells. […] Cells were washed in 1 ml phosphate buffer saline and trypsinised from the plates. Cells were pelleted at 13000 g for 5 min and washed with 1 ml PBS. Cells were re-pelleted and re-suspended in protein lysis buffer (4M urea, 0.5% SDS, 10 mM EDTA in PBS with protease inhibitor cocktail). Samples were equilibrated for total protein content and the proteins separated by SDS-PAGE and blotted to nitrocellulose. Membranes were probed with antisera against the CRABPII protein and detected by ECL-plus. Intensity of signal was captured using a STORM scanner and quantified using ImageQuant 5.2.

[2] = test system: RAR reporter gene construct (RAREs) with over-expressed RARγ, RXRα and LXRα in Cos-7 cells; details: 24 hours, fold activation over vehicle (ethanol) control

Row | Structure (SMILES) | % change from vehicle ([1]; 5 μM 22R-hydroxycholesterol) | Band Intensity (arbitrary units) ([1]; 5 μM 22R-hydroxycholesterol) | Relative band intensity ([1]; 5 μM 22R-hydroxycholesterol) | Fold activity +/− sd (n = 3) ([2]; 35 μM 22R hydroxycholesterol) | % change from vehicle ([1]; 1 nM all-trans retinoic acid) | Band Intensity (arbitrary units) ([1]; 1 nM all-trans retinoic acid) | Relative band intensity ([1]; 1 nM all-trans retinoic acid) | Fold activity +/− sd (n = 3) ([2]; 0.1 μM all-trans retinoic acid)
1 | CC(C)CC[C@@H](O)[C@@H](C)[C@H]1CC[C@H]2[C@@H]3CC=C4C[C@@H](O)CC[C@]4(C)[C@H]3CC[C@]12C [22R hydroxycholesterol] | −0.8% | 167664.2 arbitrary units | 0.992 | 1.209 +/− 0.030 fold | – | – | – | –
2 | CC1=C(/C=C/C(C)=C/C=C/C(C)=C/C(=O)O)C(C)(C)CCC1 [all-trans retinoic acid] | – | – | – | – | +35.3% | 228603.88 arbitrary units | 1.353 | 1.733 +/− 0.445 fold
